Reference: BindingDB's records for doi:10.1021/jm020871e (University of Bonn, 2002)

molecular target: Muscarinic acetylcholine receptor M2 (Sus scrofa) (UniProt P06199); assay: Binding of [3H]N-methylscopolamine at porcine heart Muscarinic acetylcholine receptor M2 that inhibits the dissociation of [3H]NMS half maximally (pEC50diss) was reported
Sequence (P06199 whole entry, looked up): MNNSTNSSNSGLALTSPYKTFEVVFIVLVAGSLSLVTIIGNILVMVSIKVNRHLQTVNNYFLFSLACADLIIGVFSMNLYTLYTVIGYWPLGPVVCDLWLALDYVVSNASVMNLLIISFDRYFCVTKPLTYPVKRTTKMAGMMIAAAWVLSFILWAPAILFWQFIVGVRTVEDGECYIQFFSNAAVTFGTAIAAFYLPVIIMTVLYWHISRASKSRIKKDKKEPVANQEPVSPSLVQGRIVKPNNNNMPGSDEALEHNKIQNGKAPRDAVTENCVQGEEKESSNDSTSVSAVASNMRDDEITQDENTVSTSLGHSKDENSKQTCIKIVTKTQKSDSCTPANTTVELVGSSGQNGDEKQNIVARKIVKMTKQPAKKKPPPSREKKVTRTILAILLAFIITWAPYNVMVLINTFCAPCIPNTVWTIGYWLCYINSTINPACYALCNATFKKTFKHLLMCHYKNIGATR

Structure (SMILES) | EC50 [µM]
Cc1ccc2c(c1)C(=O)N(CCC[N+](C)(C)CCCCCC[N+](C)(C)CCCN1C(=O)c3ccccc3C1=O)C2=O | 0.324
Cc1ccc2c(c1)C(=O)N(CCC[N+](C)(C)CCCCCC[N+](C)(C)CCCN1C(=O)c3ccc(C)cc3C1=O)C2=O | 0.17
CC(C)(CN1C(=O)c2ccccc2C1=O)C[N+](C)(C)CCCCCC[N+](C)(C)CCCN1C(=O)c2ccccc2C1=O | 0.135
CC(C)(CN1C(=O)c2ccccc2C1=O)C[N+](C)(C)CCCCCC[N+](C)(C)CC(C)(C)CN1C(=O)c2ccccc2C1=O | 0.178
Cc1ccc2c(c1)C(=O)N(CC(C)(C)C[N+](C)(C)CCCCCC[N+](C)(C)CC(C)(C)CN1C(=O)c3ccc(C)cc3C1=O)C2=O | 0.047
Cc1ccc2c(c1)C(=O)N(CCC[N+](C)(C)CCCCCC[N+](C)(C)CC(C)(C)CN1C(=O)c3ccc(C)cc3C1=O)C2=O | 0.036
Cc1ccc2c(c1)C(=O)N(CC(C)(C)C[N+](C)(C)CCCCCC[N+](C)(C)CCCN1C(=O)c3ccccc3C1=O)C2=O | 0.055
Cc1ccc2c(c1)C(=O)N(CCC[N+](C)(C)CCCCCC[N+](C)(C)CC(C)(C)CN1C(=O)c3ccccc3C1=O)C2=O | 0.071
